Data: US5190741A, “Agents for diagnosing and treating melanomas, aromatic halogenated derivatives usable as such agents and their preparation” (Institut National de la Sante et de la Recherche Medicale …, priority 1989, dated 1993)
Read-outs that look alike come from different tables or passages of the source.

Experiments:
[1] = Tissue distribution in Swiss nu/nu SSCUP mice bearing Dau; type: in vivo, human; settings: mouse, iv, 3 umol/animal
Description: The study of the tissue distribution of the ^125 I labelled compounds was performed in mice bearing grafted melanomas (cf. autoradiograms above). […] The animals are sacrificed at different time intervals of 1 to 24 hours after the injection. The blood is collected and the principal organs are excised. Aliquots are weighed and the radioactivity of the samples is measured in a […] 1191 counter (analytic tracer). The counting yield for iodine 125 is 60%. The results are expressed: as a percentage of the injected dose bound per g of tissue (% ID/g); in the form of the ratios [formula] This ratio reflects more precisely the selectivity of a molecule for an organ (tables 2, 4, 6, 8, 10 and 12).

[2] = system: EMT6 tumor (spontaneous mammary carcinoma of mice); assay: Scintillation imaging (specificity), BALB mice; type: in vivo, mouse
From the text: The mice bearing grafted tumors are anesthetized by the i.p. injection of sodium pentobarbital 1/5 and immobilized under a scintillation camera (Gammatome II, CGR) equipped with a pinhole 3-360 collimator, sensitivity 3.2 10^-4.

[3] = intestine, read-out: intestine % ID/g
[4] = kidney, read-out: kidney % ID/g
[5] = muscle, read-out: muscle % ID/g
[6] = pancreas, read-out: pancreas % ID/g
[7] = plasma, read-out: plasma % ID/g
[8] = spleen, read-out: spleen % ID/g
[9] = stomach, read-out: stomach % ID/g
[10] = submaxillary glands, read-out: submaxillary glands % ID/g

## CCN(CC)CCNC(=O)c1ccc(I)cc1 [Derivative A, N-(2-diethylaminoethyl) 4-iodo benzamide]
[1]; blood, read-out: blood % ID/g
  tissue uptake at 1 h: 0.89 %ID/g
  tissue uptake at 2 h: 0.52 %ID/g
  tissue uptake at 4 h: 0.29 %ID/g
  tissue uptake at 6 h: 0.23 %ID/g
  tissue uptake at 24 h: 0.008 %ID/g
  tissue uptake at 8 h: 0.14 %ID/g
  tissue uptake at 12 h: 0.06 %ID/g
[1]; brain, read-out: brain % ID/g
  tissue uptake at 1 h: 1.4 %ID/g
  tissue uptake at 2 h: 0.99 %ID/g
  tissue uptake at 4 h: 0.51 %ID/g
  tissue uptake at 6 h: 0.2 %ID/g
  tissue uptake at 24 h: 0.002 %ID/g
  tissue uptake at 8 h: 0.12 %ID/g
  tissue uptake at 12 h: 0.02 %ID/g
[1]; eye, read-out: eye % ID/g
  tissue uptake at 1 h: 0.68 %ID/g
  tissue uptake at 2 h: 0.54 %ID/g
  tissue uptake at 4 h: 0.31 %ID/g
  tissue uptake at 6 h: 0.16 %ID/g
  tissue uptake at 24 h: 0.02 %ID/g
  tissue uptake at 8 h: 0.1 %ID/g
  tissue uptake at 12 h: 0.04 %ID/g
[1]; [3]
  tissue uptake at 1 h: 3.74 %ID/g
  tissue uptake at 2 h: 2.67 %ID/g
  tissue uptake at 4 h: 1.1 %ID/g
  tissue uptake at 6 h: 0.42 %ID/g
  tissue uptake at 8 h: 0.38 %ID/g
  tissue uptake at 12 h: 0.27 %ID/g
  tissue uptake at 24 h: 0.01 %ID/g
[1]; [4]
  tissue uptake at 1 h: 8.39 %ID/g
  tissue uptake at 2 h: 5.12 %ID/g
  tissue uptake at 4 h: 2.15 %ID/g
  tissue uptake at 6 h: 0.78 %ID/g
  tissue uptake at 24 h: 0.03 %ID/g
  tissue uptake at 8 h: 0.32 %ID/g
  tissue uptake at 12 h: 0.14 %ID/g
[1]; liver, read-out: liver % ID/g
  tissue uptake at 1 h: 5.68 %ID/g
  tissue uptake at 2 h: 3.35 %ID/g
  tissue uptake at 4 h: 2.1 %ID/g
  tissue uptake at 6 h: 1.1 %ID/g
  tissue uptake at 24 h: 0.1 %ID/g
  tissue uptake at 8 h: 0.71 %ID/g
  tissue uptake at 12 h: 0.3 %ID/g
[1]; lungs, read-out: lungs % ID/g
  tissue uptake at 1 h: 6.88 %ID/g
  tissue uptake at 2 h: 5.63 %ID/g
  tissue uptake at 4 h: 2.84 %ID/g
  tissue uptake at 6 h: 0.76 %ID/g
  tissue uptake at 8 h: 0.45 %ID/g
  tissue uptake at 12 h: 0.11 %ID/g
  tissue uptake at 24 h: 0.02 %ID/g
[1]; [5]
  tissue uptake at 1 h: 1.28 %ID/g
  tissue uptake at 2 h: 0.79 %ID/g
  tissue uptake at 4 h: 0.32 %ID/g
  tissue uptake at 6 h: 0.11 %ID/g
  tissue uptake at 24 h: 0.006 %ID/g
  tissue uptake at 8 h: 0.07 %ID/g
  tissue uptake at 12 h: 0.02 %ID/g
[1]; [6]
  tissue uptake at 1 h: 4.06 %ID/g
  tissue uptake at 2 h: 2.29 %ID/g
  tissue uptake at 4 h: 0.97 %ID/g
  tissue uptake at 6 h: 0.41 %ID/g
  tissue uptake at 8 h: 0.24 %ID/g
  tissue uptake at 12 h: 0.13 %ID/g
  tissue uptake at 24 h: 0.03 %ID/g
[1]; [7]
  tissue uptake at 1 h: 0.55 %ID/g
  tissue uptake at 2 h: 0.33 %ID/g
  tissue uptake at 4 h: 0.24 %ID/g
  tissue uptake at 6 h: 0.24 %ID/g
  tissue uptake at 24 h: 0.007 %ID/g
  tissue uptake at 8 h: 0.15 %ID/g
  tissue uptake at 12 h: 0.06 %ID/g
[1]; [8]
  tissue uptake at 1 h: 3.48 %ID/g
  tissue uptake at 2 h: 1.95 %ID/g
  tissue uptake at 4 h: 0.8 %ID/g
  tissue uptake at 6 h: 0.3 %ID/g
  tissue uptake at 8 h: 0.16 %ID/g
  tissue uptake at 12 h: 0.07 %ID/g
  tissue uptake at 24 h: 0.02 %ID/g
[1]; [9]
  tissue uptake at 1 h: 2.32 %ID/g
  tissue uptake at 2 h: 1.85 %ID/g
  tissue uptake at 4 h: 1.36 %ID/g
  tissue uptake at 6 h: 1.17 %ID/g
  tissue uptake at 8 h: 0.71 %ID/g
  tissue uptake at 12 h: 0.38 %ID/g
  tissue uptake at 24 h: 0.03 %ID/g
[1]; [10]
  tissue uptake at 1 h: 4.75 %ID/g
  tissue uptake at 2 h: 3.56 %ID/g
  tissue uptake at 4 h: 1.5 %ID/g
  tissue uptake at 6 h: 0.86 %ID/g
  tissue uptake at 8 h: 0.77 %ID/g
  tissue uptake at 12 h: 0.3 %ID/g
  tissue uptake at 24 h: 0.02 %ID/g
[1]; tumor, read-out: tumor % ID/g
  tissue uptake at 1 h: 1.51 %ID/g
  tissue uptake at 2 h: 1.29 %ID/g
  tissue uptake at 4 h: 0.45 %ID/g
  tissue uptake at 6 h: 0.23 %ID/g
  tissue uptake at 24 h: 0.009 %ID/g
  tissue uptake at 8 h: 0.11 %ID/g
  tissue uptake at 12 h: 0.07 %ID/g
[1]; tumor, only during the 2 hours following injection, Dau, read-out: intratumoral concentration
  tissue uptake: > 1 %ID/g
[2]; ^123 I label
  tumor image: absence of images
[2]; after injection of A
  tumor image: not obtained any image
